What all share (experiment): NCI anticancer screen, dose series, 48 h
The subject of experiment [1] is T-47D breast.
For experiment [2], the system named is HCC-2998 colon.
For experiment [3], the system named is OVCAR-8 ovarian.
In experiment [4] the test system is PC-3 prostate.
Experiment [5] concerns K-562 leukemia.
Experiment [6] relates to M14 melanoma.
Experiment [7] relates to HS 578T breast.
Experiment [8] relates to SW-620 colon.
Experiment [9] deals with MALME-3M melanoma.
The subject of experiment [10] is HOP-92 NSCLC.

The structures appear in SMILES notation. “And” between values parts separate entries of the source, which are not always exact repeats. Equal entries are not always repeated.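 Five concentrations, 48 hours, 96-well plates. Abbreviation: GI50, concentration required for 50% inhibition of growth. At the TGI there is no net growth.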

With `Oc1ccccc1C=Nc1nc(SCc2ccccc2)nc2[nH]ncc12`, the GI50 in experiment [1] was 26.7 µM; in [2], 47.9 µM; in [3], 46.8 µM; in experiment [4], 37.2 µM; in experiment [5], 35.2 µM; in [6], 38.4 µM. Besides, the GI50 in experiment [7] is 11 µM; in experiment [8] it was 40 µM; in experiment [9], 34.8 µM; in [10] it was 12.4 µM. The TGI in [1] is 70.2 µM; in [2], more than 100 µM; in experiment [3], more than 100 µM; in experiment [4], more than 100 µM; in experiment [5], more than 100 µM; in experiment [6], more than 100 µM. Further, the TGI in experiment [7] is 44.7 µM; in experiment [8] it was more than 100 µM; in [9], more than 100 µM; in [10], 71.1 µM.
For the molecule `Oc1ccccc1CNCC12CC3CC(CC(C3)C1)C2`, the GI50 in [1] was 20.1 µM; in experiment [2], 12.2 µM; in [3], 79.9 µM; in [4], 26 µM; in experiment [5], 5.39 µM; in experiment [6] it was 15.7 µM. Moreover, the GI50 in experiment [7] is 19.4 µM; in experiment [8], 24.3 µM; in experiment [9] it was 21.2 µM; in experiment [10] it was 9.64 µM. Moreover, the TGI in experiment [1] was 44.6 µM; in experiment [2], 26.9 µM; in [3], more than 100 µM; in [4], more than 100 µM; in experiment [5], more than 100 µM; in experiment [6], 38.3 µM. In addition, the TGI was found to be 74.4 µM in experiment [7], 84.8 µM in experiment [8], 48.8 µM in [9] and 37.9 µM in experiment [10].
`COc1cc2c(cc1OCCCCCOc1ccc(-n3c(C)nc4ccccc4c3=O)cc1)N=C[C@@H]1CCCN1C2=O`: the GI50 is 0.324 µM in experiment [1]; 0.256 µM in experiment [2]; 0.363 µM in experiment [3]; 0.34 µM in experiment [4]; 0.164 µM in experiment [5]; 0.18 µM in experiment [6]. Also, the GI50 in experiment [7] was 0.232 µM; in experiment [8] it was 0.323 µM; in experiment [9], 0.236 µM; in experiment [10] it was 0.394 µM. Also, the TGI in experiment [2] worked out at 0.685 µM; in experiment [3] it was 3 µM; in [4], 2.89 µM; in [6] it was 0.375 µM; in [7] it was 0.88 µM; in [8], 2.8 µM. The TGI in experiment [9] was determined as 0.585 µM; in experiment [10] it was 7.38 µM.
Turning to `CC1(O)CC(c2nc(-c3ccc4ccc(-c5ccccc5)nc4c3)c3c(N)nccn23)C1` (configuration not stated), the GI50 in [1] is 3.94 µM and 2.82 µM; in [2], 6.71 µM and > 10 µM; in experiment [3], 9.34 µM and > 10 µM; in experiment [4], 12.7 µM and > 10 µM; in experiment [6], 11.5 µM and > 10 µM; in experiment [7] it was 13.8 µM and 4.28 µM. Also, the GI50 in experiment [8] is 4.87 µM and 2.36 µM; in experiment [9], 7.95 µM and > 10 µM; in experiment [10], 0.0272 µM and 0.0625 µM. The TGI in [1] is 24.1 µM and > 10 µM; in [2] it was 27.3 µM and > 10 µM; in [3], 80 µM and > 10 µM; in experiment [4], more than 100 µM; in experiment [5], more than 100 µM; in [6], 31.1 µM and > 10 µM. The TGI was 51.9 µM and > 10 µM in experiment [7]; 34.8 µM and > 10 µM in experiment [8]; 38.2 µM and > 10 µM in [9]; 1.15 µM and 1.43 µM in experiment [10].
In the case of `C=C1C(=O)O[C@H]2[C@H]1CCC(/C=N/c1ncc(Br)cc1N)=C\CC[C@@]1(C)O[C@@H]21`, the GI50 in [1] is 1.55 µM; in experiment [2], 3.56 µM; in experiment [3] it was 2.98 µM; in experiment [4], 2.26 µM; in [5], 2.11 µM; in experiment [6] it was 1.89 µM. Further, the GI50 was 5.65 µM in [7], 1.33 µM in experiment [8], 1.55 µM in experiment [9] and 1.31 µM in [10]. Besides, the TGI in experiment [1] is 4.9 µM; in experiment [2], 12.9 µM; in experiment [3], 10.9 µM; in [4] it was 11.1 µM; in experiment [5], more than 100 µM; in experiment [6], 5.36 µM. The TGI was 40.1 µM in experiment [7], 3.3 µM in [8], 3.6 µM in experiment [9] and 3.74 µM in experiment [10].
Take `Cc1cc(NCc2cc(Nc3ccnc4cc(Cl)ccc34)ccc2F)nc(N2CCN(C)CC2)n1`: the GI50 in experiment [1] was 2.1 µM; in [2], 2.09 µM; in [3], 3.14 µM; in experiment [4], 1.92 µM; in experiment [5] it was 0.386 µM; in experiment [6] it was 1.56 µM. The GI50 was 1.87 µM in experiment [7], 1.63 µM in [8], 1.84 µM in experiment [9] and 1.35 µM in experiment [10]. The TGI in experiment [1] stood at 6.13 µM; in experiment [2], 4.35 µM; in experiment [3] it was 12.9 µM; in experiment [4], 7.97 µM; in experiment [5], 2.11 µM; in [6], 3.13 µM. The TGI in experiment [7] was 5.21 µM; in experiment [8], 4.23 µM; in experiment [9], 3.66 µM; in experiment [10] it was 3.52 µM.
Consider `COc1ccccc1N1CCN(CCc2c[nH]c3cc4c(cc23)OCO4)CC1`, for which the GI50 in experiment [1] was 19.8 µM; in [2], 16.5 µM; in experiment [3], 42 µM; in experiment [4] it was 20 µM; in [5], 24.4 µM; in experiment [6], 11.3 µM. The GI50 in [7] is 20.1 µM; in experiment [8], 22 µM; in experiment [9], 27.9 µM; in [10], 14.3 µM. Also, the TGI was 77.3 µM in [1]; 32.6 µM in experiment [2]; more than 100 µM in experiment [3]; more than 100 µM in experiment [4]; more than 100 µM in [5]; 40.7 µM in experiment [6]. Also, the TGI was 70.9 µM in experiment [7], more than 100 µM in [8], more than 100 µM in [9] and more than 100 µM in [10].
Regarding `COc1cc(Cl)cc(-c2nn(-c3cccc(NC(=O)Nc4cc(C(F)(F)F)cc(C(F)(F)F)c4)c3)cc2-c2ccncc2)c1`, the GI50 in [1] is 0.476 µM; in experiment [2], 0.963 µM; in [3], 0.39 µM; in experiment [4] it was 0.311 µM; in experiment [5] it was 0.339 µM; in [6], 0.481 µM. The GI50 in experiment [7] is 1.89 µM; in [8], 0.422 µM; in experiment [9], 0.73 µM; in experiment [10] it was 0.228 µM. The TGI in experiment [1] is 6.27 µM; in [2], 5.42 µM; in [3], 2.46 µM; in [4], 1.62 µM; in experiment [5], 8.09 µM; in experiment [6], 2.3 µM. Moreover, the TGI in experiment [7] amounted to 13.6 µM; in experiment [8] it was 2.72 µM; in [9], 4.77 µM; in experiment [10], 0.783 µM.
For `COc1ccc(C(=O)/C=C/c2ccc3c(c2)OCO3)c(OCc2ccccc2)c1`, the TGI in experiment [1], in experiment [2], in experiment [3], in [4], in [5] and in experiment [6] was more than 100 µM each time. For the same molecule, the TGI in experiment [7], in experiment [8], in [9] and in [10] was more than 100 µM each time.
As for `CCC[CH2][Sn]([CH2]CCC)([CH2]CCC)[O]C(=O)c1ccc(Cl)cc1Cl`, the GI50 was 0.138 µM in experiment [1]; 0.168 µM in experiment [2]; 0.183 µM in [3]; 0.202 µM in [4]; 0.263 µM in experiment [5]; 0.147 µM in experiment [6]. The GI50 in experiment [7] was 0.173 µM; in experiment [8], 0.158 µM; in experiment [9], 0.111 µM; in [10], 0.102 µM. The TGI in experiment [1] worked out at 0.289 µM; in experiment [2] it was 0.31 µM; in experiment [3] it was 0.373 µM; in experiment [4], 0.471 µM; in experiment [5], 1.02 µM; in experiment [6], 0.29 µM. In addition, the TGI in [7] was determined as 0.538 µM; in experiment [8], 0.335 µM; in experiment [9], 0.258 µM; in experiment [10], 0.301 µM.
Regarding `N#CC1=C(N)Oc2c(sc3c(Br)cccc23)C1c1ccc(Br)cc1` (configuration not stated), the GI50 in experiment [1] was 0.397 µM; in experiment [2], 1.77 µM; in experiment [3], 0.588 µM; in experiment [4] it was 0.516 µM; in experiment [5] it was 0.137 µM; in [6], 0.515 µM. In addition, the GI50 was 2.44 µM in experiment [7], 1.55 µM in experiment [8], 1.39 µM in experiment [9] and 1.43 µM in experiment [10]. Moreover, the TGI was found to be 4.67 µM in [1]; 7.33 µM in [2]; 3.09 µM in [3]; 6.32 µM in experiment [4]; 3.16 µM in experiment [5]; 3.5 µM in experiment [6]. The TGI in experiment [7] turned out to be 13.5 µM; in experiment [8], 15.1 µM; in experiment [9] it was 20.7 µM; in experiment [10], 5.56 µM.
With `CCN(CC)CCn1c2ccccc2c(=O)c2c(O)ccc(O)c21`, the TGI is 34.3 µM in experiment [1]; more than 57.7 µM in experiment [2]; 48.2 µM in experiment [3]; more than 56.1 µM in [4]; 68.5 µM in experiment [5]; 63.6 µM in experiment [6]. Besides, the TGI is 53.5 µM in experiment [7], 31.5 µM in experiment [8], 49.3 µM in experiment [9] and 39.9 µM in experiment [10].

The values are drawn from PubChem BioAssay (NCI).
